The supplement of paper PMC12463676, “Small-molecule dissolution of stress granules by redox modulation benefits ALS models” (Nature Chemical Biology, 2025)

Experiments:
[1] = compound: O=[As]([O-])(O)O.[K+] [potassium arsenate]; assay: thermal stability z-score vs DMSO; higher = more thermally stabilized by treatment; conditions: HeLa; arsenate concentration 1 mM
Procedure: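 Cellular thermal proteome profiling in HeLa cells treated with 1 mM arsenate for 1 h (DMSO pretreatment), heated to ten temperatures (37-66.3 °C). Soluble protein was quantified by TMT mass spectrometry relative to DMSO controls; the thermal stability score was transformed to a z-score; mean of n = 3 experiments.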

[2] = compound: NC(=O)CCCCC1CCSS1 [lipoamide]; assay: as above; conditions: HeLa, lipoamide concentration 100 µM
Procedure: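 Cellular thermal proteome profiling in HeLa cells. Cells were treated with 100 µM lipoamide for 1 h, with or without 1 mM arsenate for a further 1 h, then heated to ten temperatures (37-66.3 °C), and soluble protein was quantified by TMT mass spectrometry relative to 0.1% DMSO controls. The thermal stability score (sum of log2 fold changes minus the abundance score) was transformed to a z-score; mean of n = 3 experiments.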

[3] = arsenate co-treatment: 1 mM arsenate 1 h
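Note: each temperature applied for 3 min, abundance score taken as mean log2 fold change at the two lowest temperatures, z-score obtained by mean subtraction and division by SD.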

Sequence of UniProt P50213 (P50213 whole entry): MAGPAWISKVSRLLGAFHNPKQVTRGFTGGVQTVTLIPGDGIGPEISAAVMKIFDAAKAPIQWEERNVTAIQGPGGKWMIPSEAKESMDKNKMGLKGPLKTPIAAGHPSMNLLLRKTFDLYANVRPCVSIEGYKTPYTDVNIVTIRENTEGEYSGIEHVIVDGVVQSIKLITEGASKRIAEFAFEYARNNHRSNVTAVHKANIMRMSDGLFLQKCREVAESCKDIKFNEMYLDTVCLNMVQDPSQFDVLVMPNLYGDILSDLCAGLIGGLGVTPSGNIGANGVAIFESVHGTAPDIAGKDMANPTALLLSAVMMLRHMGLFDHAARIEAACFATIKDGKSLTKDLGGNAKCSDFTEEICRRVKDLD
Sequence of UniProt Q14696 (Q14696 whole entry): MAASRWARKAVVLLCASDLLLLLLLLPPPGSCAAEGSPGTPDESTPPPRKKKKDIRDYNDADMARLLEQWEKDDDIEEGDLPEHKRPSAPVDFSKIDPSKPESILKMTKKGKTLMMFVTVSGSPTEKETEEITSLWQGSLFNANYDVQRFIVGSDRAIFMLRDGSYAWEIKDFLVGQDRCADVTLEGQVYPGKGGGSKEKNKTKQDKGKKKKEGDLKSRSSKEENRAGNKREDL
Sequence of UniProt O43292 (O43292 whole entry): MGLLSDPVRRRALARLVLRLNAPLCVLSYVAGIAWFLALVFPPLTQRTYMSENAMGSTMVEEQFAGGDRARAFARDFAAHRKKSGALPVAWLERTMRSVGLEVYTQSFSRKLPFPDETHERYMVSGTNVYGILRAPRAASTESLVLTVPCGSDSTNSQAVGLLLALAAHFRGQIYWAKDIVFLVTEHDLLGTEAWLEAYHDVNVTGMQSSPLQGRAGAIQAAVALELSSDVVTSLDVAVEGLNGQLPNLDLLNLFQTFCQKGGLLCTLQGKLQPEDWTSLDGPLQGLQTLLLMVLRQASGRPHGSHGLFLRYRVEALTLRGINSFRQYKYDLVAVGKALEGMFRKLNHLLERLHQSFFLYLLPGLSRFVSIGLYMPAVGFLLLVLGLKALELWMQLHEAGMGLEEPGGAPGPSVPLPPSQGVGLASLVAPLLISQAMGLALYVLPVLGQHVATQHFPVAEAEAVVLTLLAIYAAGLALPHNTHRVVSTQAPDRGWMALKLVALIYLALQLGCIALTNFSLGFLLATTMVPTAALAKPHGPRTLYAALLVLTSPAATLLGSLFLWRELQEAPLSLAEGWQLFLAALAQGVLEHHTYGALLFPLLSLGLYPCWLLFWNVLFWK
Sequence of UniProt P35251 (P35251 whole entry): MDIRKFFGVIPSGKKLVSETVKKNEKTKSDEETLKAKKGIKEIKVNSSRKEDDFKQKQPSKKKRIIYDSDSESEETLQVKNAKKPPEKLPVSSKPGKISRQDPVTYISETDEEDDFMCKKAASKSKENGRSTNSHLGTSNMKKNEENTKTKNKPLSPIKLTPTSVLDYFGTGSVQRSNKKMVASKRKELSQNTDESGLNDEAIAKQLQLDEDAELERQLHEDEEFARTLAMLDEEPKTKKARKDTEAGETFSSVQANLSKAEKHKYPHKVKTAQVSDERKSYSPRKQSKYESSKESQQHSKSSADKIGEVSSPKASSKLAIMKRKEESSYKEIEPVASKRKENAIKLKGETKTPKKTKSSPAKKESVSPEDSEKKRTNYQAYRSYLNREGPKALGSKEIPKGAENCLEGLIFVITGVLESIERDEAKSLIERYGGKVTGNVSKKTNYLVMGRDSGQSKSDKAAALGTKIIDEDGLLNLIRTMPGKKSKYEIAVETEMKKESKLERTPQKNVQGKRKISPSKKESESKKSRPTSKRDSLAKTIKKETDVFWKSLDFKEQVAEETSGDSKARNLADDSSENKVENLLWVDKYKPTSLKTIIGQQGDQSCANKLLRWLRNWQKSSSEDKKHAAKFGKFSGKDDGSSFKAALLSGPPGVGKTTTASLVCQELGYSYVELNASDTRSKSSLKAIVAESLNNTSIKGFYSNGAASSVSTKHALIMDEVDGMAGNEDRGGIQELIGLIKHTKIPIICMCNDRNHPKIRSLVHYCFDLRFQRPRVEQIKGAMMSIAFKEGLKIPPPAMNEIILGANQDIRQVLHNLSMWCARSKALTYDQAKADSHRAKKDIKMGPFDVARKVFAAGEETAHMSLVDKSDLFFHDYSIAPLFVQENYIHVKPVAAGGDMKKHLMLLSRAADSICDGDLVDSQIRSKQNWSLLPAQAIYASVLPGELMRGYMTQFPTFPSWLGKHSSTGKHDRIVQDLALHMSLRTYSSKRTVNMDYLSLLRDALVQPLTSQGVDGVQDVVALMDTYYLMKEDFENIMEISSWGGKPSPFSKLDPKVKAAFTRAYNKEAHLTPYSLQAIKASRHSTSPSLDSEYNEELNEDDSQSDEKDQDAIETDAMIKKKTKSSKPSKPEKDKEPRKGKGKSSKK
Sequence of UniProt Q14152 (Q14152 whole entry): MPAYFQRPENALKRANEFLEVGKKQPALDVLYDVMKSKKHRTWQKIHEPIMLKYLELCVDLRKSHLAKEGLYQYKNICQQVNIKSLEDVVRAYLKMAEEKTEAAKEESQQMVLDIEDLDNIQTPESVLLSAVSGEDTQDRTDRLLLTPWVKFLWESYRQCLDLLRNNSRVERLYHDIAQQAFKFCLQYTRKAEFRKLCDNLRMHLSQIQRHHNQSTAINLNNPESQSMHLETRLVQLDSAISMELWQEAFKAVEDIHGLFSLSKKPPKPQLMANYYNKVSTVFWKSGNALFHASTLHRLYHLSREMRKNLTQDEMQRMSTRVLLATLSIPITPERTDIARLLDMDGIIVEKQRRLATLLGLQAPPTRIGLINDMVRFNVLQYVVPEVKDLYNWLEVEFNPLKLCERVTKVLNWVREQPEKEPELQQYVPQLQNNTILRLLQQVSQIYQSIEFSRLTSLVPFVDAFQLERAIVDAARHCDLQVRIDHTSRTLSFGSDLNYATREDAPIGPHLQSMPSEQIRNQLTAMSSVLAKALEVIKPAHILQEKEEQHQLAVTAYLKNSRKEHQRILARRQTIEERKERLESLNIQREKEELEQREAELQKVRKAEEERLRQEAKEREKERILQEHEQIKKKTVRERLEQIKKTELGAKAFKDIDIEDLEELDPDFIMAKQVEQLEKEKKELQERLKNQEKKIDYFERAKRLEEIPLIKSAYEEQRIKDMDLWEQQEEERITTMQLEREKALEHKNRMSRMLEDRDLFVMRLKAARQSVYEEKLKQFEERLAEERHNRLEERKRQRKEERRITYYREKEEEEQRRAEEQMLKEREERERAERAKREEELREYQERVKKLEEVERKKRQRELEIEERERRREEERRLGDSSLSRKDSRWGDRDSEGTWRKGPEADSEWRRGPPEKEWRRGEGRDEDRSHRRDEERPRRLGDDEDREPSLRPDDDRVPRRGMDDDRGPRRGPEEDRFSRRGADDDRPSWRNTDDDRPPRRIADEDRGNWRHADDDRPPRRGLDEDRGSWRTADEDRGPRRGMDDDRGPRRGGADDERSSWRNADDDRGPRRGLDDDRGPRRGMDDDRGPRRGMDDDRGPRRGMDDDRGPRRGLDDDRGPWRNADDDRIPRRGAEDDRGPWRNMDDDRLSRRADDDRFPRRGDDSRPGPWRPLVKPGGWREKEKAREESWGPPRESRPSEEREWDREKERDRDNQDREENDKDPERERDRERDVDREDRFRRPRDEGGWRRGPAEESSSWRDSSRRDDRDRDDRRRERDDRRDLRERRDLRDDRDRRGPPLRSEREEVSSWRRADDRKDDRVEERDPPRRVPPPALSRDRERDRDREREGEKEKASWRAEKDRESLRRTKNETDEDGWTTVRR
Sequence of UniProt P48739 (P48739 whole entry): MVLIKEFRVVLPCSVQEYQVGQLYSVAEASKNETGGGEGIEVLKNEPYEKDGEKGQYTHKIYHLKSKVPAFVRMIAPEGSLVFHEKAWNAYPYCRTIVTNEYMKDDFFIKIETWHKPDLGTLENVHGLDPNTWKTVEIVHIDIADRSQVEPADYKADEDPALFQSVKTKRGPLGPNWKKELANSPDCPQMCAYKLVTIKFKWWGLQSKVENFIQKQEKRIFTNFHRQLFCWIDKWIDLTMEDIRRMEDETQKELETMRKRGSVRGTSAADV
Sequence of UniProt Q9NRX4 (Q9NRX4 whole entry): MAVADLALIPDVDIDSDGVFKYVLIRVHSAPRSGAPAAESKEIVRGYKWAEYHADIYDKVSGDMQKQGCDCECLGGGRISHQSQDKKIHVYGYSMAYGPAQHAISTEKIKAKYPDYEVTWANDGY
Sequence of UniProt P01111 (P01111 whole entry): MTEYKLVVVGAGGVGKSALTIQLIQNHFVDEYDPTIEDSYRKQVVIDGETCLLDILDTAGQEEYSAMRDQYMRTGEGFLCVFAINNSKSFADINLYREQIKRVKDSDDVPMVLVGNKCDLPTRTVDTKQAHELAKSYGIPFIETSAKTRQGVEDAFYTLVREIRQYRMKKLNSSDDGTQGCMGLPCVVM
Sequence of UniProt O14949 (O14949 whole entry): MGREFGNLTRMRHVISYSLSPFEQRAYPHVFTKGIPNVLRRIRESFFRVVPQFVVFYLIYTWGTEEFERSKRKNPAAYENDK
Sequence of UniProt P35659 (P35659 whole entry): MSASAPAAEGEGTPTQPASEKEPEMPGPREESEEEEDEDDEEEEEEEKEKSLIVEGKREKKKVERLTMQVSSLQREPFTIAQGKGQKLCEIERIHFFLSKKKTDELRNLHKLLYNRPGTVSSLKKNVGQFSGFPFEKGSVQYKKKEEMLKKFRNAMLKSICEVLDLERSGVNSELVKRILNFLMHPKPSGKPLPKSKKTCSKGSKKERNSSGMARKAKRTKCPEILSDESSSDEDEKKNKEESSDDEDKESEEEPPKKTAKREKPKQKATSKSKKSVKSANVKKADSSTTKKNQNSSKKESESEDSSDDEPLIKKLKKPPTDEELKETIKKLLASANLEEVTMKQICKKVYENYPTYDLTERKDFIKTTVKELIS
Sequence of UniProt Q8N0T1 (Q8N0T1 whole entry): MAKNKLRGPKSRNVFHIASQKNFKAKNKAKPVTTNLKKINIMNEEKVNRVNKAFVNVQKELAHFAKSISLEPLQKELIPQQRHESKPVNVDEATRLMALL
Sequence of UniProt P56381 (P56381 whole entry): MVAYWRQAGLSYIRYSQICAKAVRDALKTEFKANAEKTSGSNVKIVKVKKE

Target	thermal stability z-score [1]	thermal stability z-score [2, 3]	thermal stability z-score ([2]; arsenate co-treatment: none)
METTL15 (UniProt A6NJ78)	0.348	0.0439	-0.103
EPB41 (UniProt P11171)	-0.0292	-0.424	-0.262
SNUPN (UniProt O95149)	-0.43	-0.201	-1.48
CSDE1 (UniProt O75534)	-0.273	-0.138	0.281
CBR1 (UniProt P16152)	0.879	0.136	0.208
GMNN (UniProt O75496)	0.576	0.365	0.809
BTN2A1 (UniProt Q7KYR7)	0.0455	-0.659	-0.638
USP7 (UniProt Q93009)	-0.483	0.299	0.123
MRPL28 (UniProt Q13084)	-0.154	-0.527	-0.172
PPP4R3A (UniProt Q6IN85)	-0.165	0.268	0.184
ACACA (UniProt Q13085)	0.153	-0.534	-0.289
MESDC2 (UniProt Q14696)	0.346	-1.36	-1.28
ZADH2 (UniProt Q8N4Q0)	0.319	0.265	0.233
CPSF3L (UniProt Q5TA45)	0.178	0.622	0.702
ATP5E (UniProt P56381)	0.00933	0.582	0.508
C5ORF51 (UniProt A6NDU8)	-0.796	-1	-0.695
SERPINB5 (UniProt P36952)	0.0156	0.571	0.206
TJP1 (UniProt Q07157)	0.371	0.078	-0.0866
NBN (UniProt O60934)	-0.469	0.219	0.275
DCAF13 (UniProt Q9NV06)	1.25	-0.43	-0.325
PITPNB (UniProt P48739)	-1.18	-0.0644	0.129
ADPRHL2 (UniProt Q9NX46)	-0.268	0.435	-0.109
ACYP2 (UniProt P14621)	-0.0225	0.611	0.261
ZNFX1 (UniProt Q9P2E3)	2.01	0.113	1.85

Target	thermal stability z-score [1]	thermal stability z-score [2, 3]	thermal stability z-score ([2]; arsenate co-treatment: none)
NPC2 (UniProt P61916)	-0.391	0.0993	0.738
POLD2 (UniProt P49005)	-0.0023	0.196	0.117
KIF23 (UniProt Q02241)	-0.0543	0.207	0.324
PRDX2 (UniProt P32119)	-0.431	0.0679	0.162
TSEN34 (UniProt Q9BSV6)	-0.292	-1.1	0.117
GNL3L (UniProt Q9NVN8)	-0.0324	-0.151	0.0609
ARHGEF7 (UniProt Q14155)	-0.0377	-0.856	-0.54
CDS2 (UniProt O95674)	-0.43	-0.807	-0.975
CDC40 (UniProt O60508)	0.0978	-0.117	0.182
FOXO3 (UniProt O43524)	0.19	-0.0135	-0.184
IDH3A (UniProt P50213)	-1.11	-0.0281	-0.439
RAP1GDS1 (UniProt P52306)	0.353	0.161	-0.118
GINS2 (UniProt Q9Y248)	0.0793	-0.0167	0.00771
NRAS (UniProt P01111)	-0.271	0.00516	-0.21
UQCRQ (UniProt O14949)	1.28	0.971	0.797
SPATS2L (UniProt Q9NUQ6)	-0.0325	0.296	0.638
GPAA1 (UniProt O43292)	0.145	-1.09	-1.12
SF3B3 (UniProt Q15393)	-0.681	1.49	0.828
RHOT1 (UniProt Q8IXI2)	-0.708	-0.488	-0.262
DEK (UniProt P35659)	-0.316	0.116	0.695
EIF3A (UniProt Q14152)	0.432	0.713	0.446
TTL (UniProt Q8NG68)	-0.126	-0.0821	0.166
CUL7 (UniProt Q14999)	-0.113	0.0636	0.0136
S100A13 (UniProt Q99584)	0.67	0.758	1.06

Target	thermal stability z-score [1]	thermal stability z-score [2, 3]	thermal stability z-score ([2]; arsenate co-treatment: none)
AGPAT3 (UniProt Q9NRZ7)	-0.114	-0.336	0.305
YY1 (UniProt P25490)	0.338	0.0187	-0.101
ANAPC4 (UniProt Q9UJX5)	-1.3	-0.529	-0.278
DNAH1 (UniProt Q9P2D7)	0.0212	-0.00768	0.171
LSM5 (UniProt Q9Y4Y9)	-1.23	-0.69	0.0925
CHMP6 (UniProt Q96FZ7)	0.217	0.476	0.273
LIAS (UniProt O43766)	-2.31	1.93	3.09
ZPR1 (UniProt O75312)	-1.09	0.753	-0.187
GEMIN5 (UniProt Q8TEQ6)	-0.93	-0.411	-0.402
C15ORF38|ARPIN	0.206	-0.167	0.382
FARSA (UniProt Q9Y285)	0.0543	-1.41	-0.546
RAP1B (UniProt P61224)	0.17	0.74	0.45
GLMN (UniProt Q92990)	-0.181	-0.559	-0.296
PPOX (UniProt P50336)	0.154	0.085	0.352
JTB (UniProt O76095)	0.688	0.634	0.0713
PIK3C3 (UniProt Q8NEB9)	-0.484	-0.102	-0.206
RFC1 (UniProt P35251)	-0.0625	-0.248	1.77
GSS (UniProt P48637)	-0.183	-0.2	-0.141
PHPT1 (UniProt Q9NRX4)	-1.95	0.922	0.553
PDCD11 (UniProt Q14690)	-0.125	-0.0446	-0.334
ARID4B (UniProt Q4LE39)	-0.419	0.0389	0.0738
C8ORF59 (UniProt Q8N0T1)	-0.38	0.481	0.508
ABCB7 (UniProt O75027)	0.456	0.117	0.0859
